Values of other authors as cited in PMC3714282, “Pharmacometabolomics of Response to Sertraline and to Placebo in Major Depressive Disorder – Possible Role for Methoxyindole Pathway” (PLoS ONE, 2013).

System: arylalkylamine N-acetyltransferase (AANAT) mRNA
Parameters: method as in PMID 9951564
Settings: animal studies, chronic administration; cited from earlier work

For `CNCCC(Oc1ccc(C(F)(F)F)cc1)c1ccccc1` (stereo not shown) [fluoxetine], the “brain arylalkylamine N-acetyltransferase (AANAT) mRNA” value is listed as “several-fold increase”.
